Laboratory results: the supplement of paper PMC10307832

Tests used:
Assay in all cases: relative viability (nuclei count vs DMSO), 5 days (fraction); higher = more cells survive
Calu-6 = test system: Calu-6
Outline: (§1)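 Lung cancer cell lines in 1536-well plates were dosed by pin tool the day after seeding, either with one drug alone or with a fixed anchor-drug dose plus five library-drug doses (not always all listed) in √10 steps. After 5 days, cells were fixed and their nuclei stained in one step (final 0.05% Triton X-100, 1% formaldehyde, 1 ug/ml Hoechst), then counted on 4× images. Relative viability is the nuclei count in treated wells divided by that in vehicle wells. Values are medians of duplicate plates.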

EMC-BAC-2 = test system: EMC-BAC-2
Outline: as §1

IA-LM = test system: IA-LM
Outline: as §1

A549 = test system: A549
Outline: as §1

NCI-H1299 = test system: NCI-H1299
Outline: as §1

EBC-1 = test system: EBC-1
Outline: as §1

NCI-H2228 = test system: NCI-H2228
Outline: as §1

NCI-H2009 = test system: NCI-H2009
Outline: as §1

NCI-H1703 = test system: NCI-H1703
Outline: as §1

ABC-1 = test system: ABC-1
Outline: as §1

Cc1csc(=NC2CCCCC2)n1/N=C/c1ccc(O)c(O)c1O [MIM1] + CC1(C)CCC(c2ccc(Cl)cc2)=C(CN2CCN(c3ccc(C(=O)NS(=O)(=O)c4ccc(N[C@H](CCN5CCOCC5)CSc5ccccc5)c(S(=O)(=O)C(F)(F)F)c4)cc3)CC2)C1 [Navitoclax] (partner 0.5 µM)
relative viability (Calu-6; first compound 0.2 µM): 0.772
relative viability (Calu-6; first compound 0.6325 µM): 0.93
relative viability (Calu-6; first compound 2 µM): 0.857
relative viability (Calu-6; first compound 6.325 µM): 0.205
relative viability (Calu-6; first compound 20 µM): 0.135
relative viability (EMC-BAC-2; first compound 0.2 µM): 1.11
relative viability (EMC-BAC-2; first compound 0.6325 µM): 1.13
relative viability (EMC-BAC-2; first compound 2 µM): 1.27
relative viability (EMC-BAC-2; first compound 6.325 µM): 1.05
relative viability (EMC-BAC-2; first compound 20 µM): 0.274
relative viability (IA-LM; first compound 0.2 µM): 0.588
relative viability (IA-LM; first compound 0.6325 µM): 0.713
relative viability (IA-LM; first compound 2 µM): 0.721
relative viability (IA-LM; first compound 6.325 µM): 0.195
relative viability (IA-LM; first compound 20 µM): 0.0808
relative viability (A549; first compound 0.2 µM): 1.17
relative viability (A549; first compound 0.6325 µM): 1.24
relative viability (A549; first compound 2 µM): 1.3
relative viability (A549; first compound 6.325 µM): 0.843
relative viability (A549; first compound 20 µM): 0.0781
relative viability (NCI-H1299; first compound 0.2 µM): 1.06
relative viability (NCI-H1299; first compound 0.6325 µM): 1.07
relative viability (NCI-H1299; first compound 2 µM): 1.04
relative viability (NCI-H1299; first compound 6.325 µM): 1.05
relative viability (NCI-H1299; first compound 20 µM): 0.974
relative viability (EBC-1; first compound 0.2 µM): 0.417
relative viability (EBC-1; first compound 0.6325 µM): 0.475
relative viability (EBC-1; first compound 2 µM): 0.367
relative viability (EBC-1; first compound 6.325 µM): 0.227
relative viability (EBC-1; first compound 20 µM): 0.166
relative viability (NCI-H2228; first compound 0.2 µM): 0.959
relative viability (NCI-H2228; first compound 0.6325 µM): 0.916
relative viability (NCI-H2228; first compound 2 µM): 0.874
relative viability (NCI-H2228; first compound 6.325 µM): 0.274
relative viability (NCI-H2228; first compound 20 µM): 0.157
relative viability (NCI-H2009; first compound 0.2 µM): 1.14
relative viability (NCI-H2009; first compound 0.6325 µM): 1.19
relative viability (NCI-H2009; first compound 2 µM): 1.22
relative viability (NCI-H2009; first compound 6.325 µM): 0.999
relative viability (NCI-H2009; first compound 20 µM): 0.826
relative viability (NCI-H1703; first compound 0.2 µM): 0.91
relative viability (NCI-H1703; first compound 0.6325 µM): 1.15
relative viability (NCI-H1703; first compound 2 µM): 1.03
relative viability (NCI-H1703; first compound 6.325 µM): 0.135
relative viability (NCI-H1703; first compound 20 µM): 0.117

Cc1csc(=NC2CCCCC2)n1/N=C/c1ccc(O)c(O)c1O [MIM1] + CC(C)C[C@H](NC(=O)[C@H](Cc1ccccc1)NC(=O)c1cnccn1)B(O)O [Bortezomib] (partner 0.002 µM)
relative viability (Calu-6; first compound 0.2 µM): 1.05
relative viability (Calu-6; first compound 0.6325 µM): 1.1
relative viability (Calu-6; first compound 2 µM): 0.923
relative viability (Calu-6; first compound 6.325 µM): 0.289
relative viability (Calu-6; first compound 20 µM): 0.203
relative viability (EMC-BAC-2; first compound 0.2 µM): 1.08
relative viability (EMC-BAC-2; first compound 0.6325 µM): 0.822
relative viability (EMC-BAC-2; first compound 2 µM): 1.08
relative viability (EMC-BAC-2; first compound 6.325 µM): 0.996
relative viability (EMC-BAC-2; first compound 20 µM): 0.259
relative viability (ABC-1; first compound 0.2 µM): 0.33
relative viability (ABC-1; first compound 0.6325 µM): 0.299
relative viability (ABC-1; first compound 2 µM): 0.298
relative viability (ABC-1; first compound 6.325 µM): 0.309
relative viability (ABC-1; first compound 20 µM): 0.231
relative viability (IA-LM; first compound 0.2 µM): 0.754
relative viability (IA-LM; first compound 0.6325 µM): 0.792
relative viability (IA-LM; first compound 2 µM): 0.783
relative viability (IA-LM; first compound 6.325 µM): 0.275
relative viability (IA-LM; first compound 20 µM): 0.0874
relative viability (NCI-H1299; first compound 0.2 µM): 1.01
relative viability (NCI-H1299; first compound 0.6325 µM): 1.03
relative viability (NCI-H1299; first compound 2 µM): 0.999
relative viability (NCI-H1299; first compound 6.325 µM): 0.965
relative viability (NCI-H1299; first compound 20 µM): 0.994
relative viability (EBC-1; first compound 0.2 µM): 0.496
relative viability (EBC-1; first compound 0.6325 µM): 0.569
relative viability (EBC-1; first compound 2 µM): 0.647
relative viability (EBC-1; first compound 6.325 µM): 0.324
relative viability (EBC-1; first compound 20 µM): 0.242
relative viability (NCI-H2228; first compound 0.2 µM): 1.02
relative viability (NCI-H2228; first compound 0.6325 µM): 1.09
relative viability (NCI-H2228; first compound 2 µM): 1.09
relative viability (NCI-H2228; first compound 6.325 µM): 0.414
relative viability (NCI-H2228; first compound 20 µM): 0.246
relative viability (NCI-H2009; first compound 0.2 µM): 1.01
relative viability (NCI-H2009; first compound 0.6325 µM): 0.956
relative viability (NCI-H2009; first compound 2 µM): 1.02
relative viability (NCI-H2009; first compound 6.325 µM): 0.529
relative viability (NCI-H2009; first compound 20 µM): 0.106
relative viability (NCI-H1703; first compound 0.2 µM): 0.386
relative viability (NCI-H1703; first compound 0.6325 µM): 0.358
relative viability (NCI-H1703; first compound 2 µM): 0.318
relative viability (NCI-H1703; first compound 6.325 µM): 0.155
relative viability (NCI-H1703; first compound 20 µM): 0.133
